The target of series [1] is T1, immobilized human serum albumin (Homo sapiens, UniProt P02768).
T1 construct: purchased Chiralpak (Chiraltech) 34712
Description: Albumin binding: affinity chromatography on columns with immobilized human serum albumin (net retention time). Particulars: isolated binders; HSA column 25° C., PBS pH 7.4/isopropanol gradient. The procedure:
In order to identify suitable binder molecules, which when bound to a peptide, such as an insulin, are able to improve the half-life in plasma and to prolong the profile of action, a system was established based on affinity chromatography with serum albumin columns, i.e. columns with immobilized serum albumin.
The net retention time of the binders (samples) was calculated according to the following formula: Net retention time=RetTimeSample−RetTimet0 marker
• Instrument: Waters Alliance 2795/Waters PDA 2996 or Waters H-Class UPLC equipped with a Waters Acquity photodiode-array detector • Software: Waters Empower 3 • Column: […]® HSA 50×4 mm; 5 μm Particle size • Chiraltech Order Numbers: HSA: 34712 • Eluent A: Phosphate Buffer saline (PBS) at pH=7.4 • Gibco PBS pH7.4 (10×) Phosphate Buffered Saline 500 ml; • Order Number: 70011-036 (500 ml) • Eluent B: Isopropanol • Fisher Order Number: A461-1 (10 • Gradient:
• Column temperature: 25° C. • Flow rate: 1.0 ml/min • Detection: λ=220 nm • Injection volume: 20 μL • Sample Conc.: 1 mg/ml insulin solution in PBS for insulin samples • 5 μL of 10 mM DMSO stock solution (DMSO evaporated and re-dissolved in 200 μL i-propanol/water 1:1 v/v) for isolated binder samples (250 μM, 0.2 mg/ml at 800 Da MolWeight) • t0 marker Sodium Nitrate (NaNO3) solution in water, 0.05 mg/ml • Diluted from aqueous 1 mg/ml stock solution (Fluka Order Number: 74246-100ML) • Reported Value Net retention time of sample: RetTime Sample−RetTime t0 marker
Affinity chromatography was carried out i) for insulin conjugates according to Examples 3.3 and 3.4 on a Waters Alliance Separation Module 2695 equipped with a Waters photodiode-array detector 2996 or Waters H-Class UPLC equipped with a Waters Acquity photodiode-array detector and ii) for isolated binders according to Example 2.11 on a Waters Alliance Separation Module 2795 equipped with a Waters photodiode-array detector 2996 or Waters H-Class UPLC equipped with a Waters Acquity photodiode-array detector.
Columns with immobilized human serum albumin (50×4 mm; 5 μm particle size) were purchased from Chiralpak and used for separations.
The columns with immobilized serum albumin were kept at 25° C. during the LC run, UV detection was carried out at 220 nm and injection volume was 20 μL.
The net retention time of the samples was reported according to Net retention time=RetTime Sample−RetTime t0 marker

Series [2] has as its target T2, insulin receptor isoform B (IR-B) (Homo sapiens, UniProt P06213). The series is described as follows: Insulin receptor autophosphorylation assay (In-Cell Western, CHO cells, Example 8B). The class given is cell-based. Set-up: expressed in transfected cells; host or cells: CHO cells. The note with it: relative to human insulin.
The target of series [3] is T2, insulin receptor isoform B (IR-B). Description: Insulin receptor binding affinity assay of insulin analogs (Example 8A, SPA competition binding). Particulars: relative to human insulin; a value of 0 means below the detection limit. Set-up: expressed in transfected cells; host or cells: CHO cells overexpressing the IR; isolated plasma membranes. Here is the method: Methods for determining the binding affinity of an insulin analog to an insulin receptor are well known in the art. […] The insulin receptor can be present in a membrane of a cell, e.g. of CHO (Chinese Hamster Ovary) cell, which overexpresses a recombinant insulin receptor. In an embodiment, the insulin receptor binding affinity is determined as described in the Examples section.
Insulin receptor binding affinity for the analogs listed in Table 4 was determined as described in Hartmann et al. (Effect of the long-acting insulin analogs glargine and degludec on cardiomyocyte cell signaling and function. Cardiovasc Diabetol. 2016; 15:96). Isolation of insulin receptor embedded plasma membranes (M-IR) and competition binding experiments were performed as previously described (Sommerfeld et al., PLoS One. 2010; 5 (3): e9540). Briefly, CHO-cells overexpressing the IR were collected and re-suspended in ice-cold 2.25 STM buffer (2.25 M sucrose, 5 mM Tris-HCl pH 7.4, 5 mM MgCl2, complete protease inhibitor) and disrupted using a Dounce homogenizer followed by sonication. The homogenate was overlaid with 0.8 STM buffer (0.8 M sucrose, 5 mM Tris-HCl pH 7.4, 5 mM MgCl2, complete protease inhibitor) and ultra-centrifuged for 90 min at 100,000 g. Plasma membranes at the interface were collected and washed twice with phosphate buffered saline (PBS). The final pellet was re-suspended in dilution buffer (50 mM Tris-HCl pH 7.4, 5 mM MgCl2, complete protease inhibitor) and again homogenized with a Dounce homogenizer. Competition binding experiments were performed in a binding buffer (50 mM Tris-HCl, 150 mM NaCl, 0.1% BSA, complete protease inhibitor, adjusted to pH 7.8) in 96-well microplates. In each well 2 μg isolated membrane was incubated with 0.25 mg wheat germ agglutinin polyvinyltoluene polyethylenimine scintillation proximity assay (SPA) beads. […] The radioactivity was measured at equilibrium in a microplate scintillation counter (Wallac Microbeta, Freiburg, Germany).”

The target of series [4] is Insulin degrading enzyme, IDE (Homo sapiens, UniProt P14735). Description: In vitro proteolytic stability against insulin degrading enzyme (Example 9). It counts as in vitro ADME. Particulars: 37° C., 2 μM.
Description: The stability determination was done using appropriate time points (for SIF and SGF 15, 30, 60, 120 and 240 minutes; for proteases 15, 30, 60 and 120 minutes). The incubation was done at 37° C. and the % of remaining parent compound was calculated in reference to a TO time point.
For the determination of the parent compound an appropriate bioanalytical LC-MS/MS or LC-HRMS method was used, using the supernatant, after protein precipitation with ethanol (1 eq. v/v) and a centrifugation step.
Compounds were dissolved in diluted hydrochloric acid at a final concentration of 40 μM. The compound concentration in the assay was 2 μM. A 1:20 dilution of the working solution was done into the protease buffer and samples are then incubated at 37° C., under stirring. At the appropriate time point and aliquot was taken, the reaction was quenched ethanol (1 eq. v/v), than centrifuged. The supernatant was analyzed.

Marks after values point to notes of the source that are not given here.

T2 sequence (P06213 28-758 limits assumed): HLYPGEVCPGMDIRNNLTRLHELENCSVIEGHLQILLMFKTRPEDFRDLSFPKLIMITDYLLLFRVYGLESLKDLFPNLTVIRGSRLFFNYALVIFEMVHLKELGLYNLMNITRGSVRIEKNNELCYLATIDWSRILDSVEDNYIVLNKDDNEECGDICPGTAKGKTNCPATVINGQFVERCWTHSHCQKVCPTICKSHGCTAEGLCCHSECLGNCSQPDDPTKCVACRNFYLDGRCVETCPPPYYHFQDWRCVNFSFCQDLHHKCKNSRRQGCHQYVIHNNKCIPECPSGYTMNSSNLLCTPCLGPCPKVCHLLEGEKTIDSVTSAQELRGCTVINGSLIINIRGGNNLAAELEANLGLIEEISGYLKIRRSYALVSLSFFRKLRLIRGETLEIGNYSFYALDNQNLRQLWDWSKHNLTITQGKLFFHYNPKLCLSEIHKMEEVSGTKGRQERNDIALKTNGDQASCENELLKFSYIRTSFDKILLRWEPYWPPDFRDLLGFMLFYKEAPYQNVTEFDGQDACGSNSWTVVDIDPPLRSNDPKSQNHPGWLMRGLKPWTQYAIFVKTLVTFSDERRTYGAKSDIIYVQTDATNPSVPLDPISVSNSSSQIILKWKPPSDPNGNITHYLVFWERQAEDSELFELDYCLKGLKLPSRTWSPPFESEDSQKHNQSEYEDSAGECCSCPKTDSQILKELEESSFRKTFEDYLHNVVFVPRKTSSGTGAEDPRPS
T2 sequence (P06213 763-1382 limits assumed): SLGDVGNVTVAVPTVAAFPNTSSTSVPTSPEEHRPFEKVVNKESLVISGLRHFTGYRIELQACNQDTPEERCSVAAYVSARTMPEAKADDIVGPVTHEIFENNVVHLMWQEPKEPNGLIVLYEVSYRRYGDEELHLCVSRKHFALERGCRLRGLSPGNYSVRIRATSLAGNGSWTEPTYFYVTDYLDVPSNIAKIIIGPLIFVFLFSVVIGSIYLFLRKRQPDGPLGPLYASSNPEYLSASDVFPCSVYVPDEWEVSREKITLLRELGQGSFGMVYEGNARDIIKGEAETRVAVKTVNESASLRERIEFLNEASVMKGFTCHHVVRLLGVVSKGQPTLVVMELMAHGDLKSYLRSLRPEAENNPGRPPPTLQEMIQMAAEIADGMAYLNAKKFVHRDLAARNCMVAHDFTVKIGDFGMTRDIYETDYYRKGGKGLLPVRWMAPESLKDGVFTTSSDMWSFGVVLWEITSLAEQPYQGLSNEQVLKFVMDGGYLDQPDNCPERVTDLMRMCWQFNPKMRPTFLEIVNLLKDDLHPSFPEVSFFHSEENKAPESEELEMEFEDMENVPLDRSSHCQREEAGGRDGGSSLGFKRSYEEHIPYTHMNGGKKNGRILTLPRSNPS
T1 sequence (P02768 25-609): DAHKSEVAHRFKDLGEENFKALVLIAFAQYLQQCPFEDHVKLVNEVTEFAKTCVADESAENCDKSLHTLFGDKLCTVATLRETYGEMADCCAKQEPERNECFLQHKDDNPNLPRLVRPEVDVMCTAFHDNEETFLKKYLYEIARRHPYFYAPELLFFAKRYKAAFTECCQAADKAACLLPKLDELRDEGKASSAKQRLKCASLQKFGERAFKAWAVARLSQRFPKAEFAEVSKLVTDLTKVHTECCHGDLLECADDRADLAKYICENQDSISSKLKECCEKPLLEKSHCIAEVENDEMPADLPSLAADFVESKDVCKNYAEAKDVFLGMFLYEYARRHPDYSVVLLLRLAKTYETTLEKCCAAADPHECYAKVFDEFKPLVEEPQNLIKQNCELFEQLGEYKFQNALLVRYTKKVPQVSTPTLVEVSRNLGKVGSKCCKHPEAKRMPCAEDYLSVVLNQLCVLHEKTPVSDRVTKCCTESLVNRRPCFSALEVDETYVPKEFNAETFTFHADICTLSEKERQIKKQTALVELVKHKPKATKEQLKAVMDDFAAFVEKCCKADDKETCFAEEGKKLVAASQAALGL

In the case of `O=C(O)CCCCCCCCCCCCCOc1ccc(S(=O)(=O)Nc2ccc(C(=O)NCCOCCOCC(=O)NCCOCCOCC(=O)O)cn2)cc1` [Binder 32], in series [1], the “NRT [min] (net retention time on columns with immobilized human serum albumin)” value (shortened to “NRT [min]”) is on record as 13.9 min. Moreover, the autophosphorylation activity in series [2] worked out at 0.04. Besides, the Insulin-receptor binding affinity in series [3] is reported as 0.

For the compound `O=C(O)CCCCCCCCCc1ccc(CCOc2ccc(S(=O)(=O)Nc3ccc(C(=O)NCCOCCOCC(=O)NCCOCCOCC(=O)O)cn3)cc2)cc1` [Binder 26], the “NRT [min]” value in series [1] came to 14.98 min. Also, the autophosphorylation activity in series [2] amounted to 0.07. The compound further registered an Insulin-receptor binding affinity in series [3] of 0.01.

On to `O=C(O)CCCCCCCCCCCCCc1ccc(S(=O)(=O)Nc2ccc(C(=O)NCCOCCOCC(=O)NCCOCCOCC(=O)O)cn2)cc1` [Binder 30], for which the “NRT [min]” value in series [1] amounted to 14.36 min. This compound also showed an autophosphorylation activity in series [2] of 0.01. In addition, the Insulin-receptor binding affinity in series [3] is on record as 0**.

Consider `O=C(O)CCCCCCCCCCCCCCCCCc1ccc(S(=O)(=O)Nc2ccc(C(=O)NCCOCCOCC(=O)NCCOCCOCC(=O)O)cn2)cc1` [Binder 31], for which, in series [1], the “NRT [min]” value stood at 15.77 min. In series [2], this compound registered an autophosphorylation activity of 0.13. Further, the Insulin-receptor binding affinity in series [3] was found to be 0.12.

Regarding `O=C(O)CCCCCCCCCCCCCOc1ccc(S(=O)(=O)Nc2ncc(C(=O)NCCOCCOCC(=O)NCCOCCOCC(=O)O)cn2)cc1` [Binder 33], in series [1], the “NRT [min]” value amounted to 13.57 min. For the same compound, the autophosphorylation activity in series [2] is given as 0.02. The Insulin-receptor binding affinity in series [3] amounted to 0.01.

As for `O=C(O)CCCCCCCCCCCCCc1ccc(S(=O)(=O)Nc2ccc(C(=O)NCCOCCOCC(=O)NCCOCCOCC(=O)O)cn2)cc1` [Binder 20], in series [1], the “NRT [min]” value was 14.8 min. The autophosphorylation activity in series [2] was 0.28. This compound also came in with an Insulin-receptor binding affinity in series [3] of 0.4.

For the compound `O=C(O)CCCCCCCCCCCCCCc1cc(Oc2ccc(S(=O)(=O)Nc3ncc(C(=O)NCCOCCOCC(=O)NCCOCCOCC(=O)O)cn3)cc2)ccc1F` [Binder 13], the “NRT [min]” value in series [1] is recorded as 15.29 min. Besides, the autophosphorylation activity in series [2] was determined as 0.1. In addition, the Insulin-receptor binding affinity in series [3] is 0.11.

In the case of `O=C(O)CCCCCCCCCCCOc1ccc(S(=O)(=O)Nc2ccc(C(=O)NCCOCCOCC(=O)NCCOCCOCC(=O)O)cn2)cc1` [Binder 18], the “NRT [min]” value in series [1] turned out to be 12.37 min. This compound also registered an autophosphorylation activity in series [2] of 0.18. The compound further yielded an Insulin-receptor binding affinity in series [3] of 0.23.

For `O=C(O)CCCCCCCCCc1ccc(CCOc2ccc(S(=O)(=O)Nc3ncc(C(=O)NCCOCCOCC(=O)NCCOCCOCC(=O)O)cn3)cc2)cc1` [Binder 10], the “NRT [min]” value in series [1] was found to be 15.65 min. In series [2], this compound came in with an autophosphorylation activity of 0.31. The compound further had an Insulin-receptor binding affinity in series [3] of 0.37.

Regarding `O=C(O)CCCCCCCCCCCOc1ccc(S(=O)(=O)Nc2ncc(C(=O)NCCOCCOCC(=O)NCCOCCOCC(=O)O)cn2)cc1` [Binder 16], the “NRT [min]” value in series [1] is 11.88 min. In series [4], the “Percent remaining insulin analog, Insulin degrading enzyme, IDE (30 minutes)” value (“Percent remaining insulin analog” for short) was determined as 88%. This compound had an autophosphorylation activity in series [2] of 0.29. In addition, the Insulin-receptor binding affinity in series [3] stood at 0.36.

As for `O=C(O)CCCCCCCCCCCCCCCOc1ccc(S(=O)(=O)Nc2ccc(C(=O)NCCOCCOCC(=O)NCCOCCOCC(=O)O)cn2)cc1F` [Binder 39], the “NRT [min]” value in series [1] is listed as 13.68 min. In series [2], the autophosphorylation activity amounted to 0.02. In series [3], this compound gave an Insulin-receptor binding affinity of 0.

With `O=C(O)CCCCCCCCCCCc1cccc(S(=O)(=O)Nc2ccc(C(=O)NCCOCCOCC(=O)NCCOCCOCC(=O)O)cn2)c1` [Binder 40], the “NRT [min]” value in series [1] was 11.44 min. The compound also showed an autophosphorylation activity in series [2] of 0.01. For the same compound, the Insulin-receptor binding affinity in series [3] is reported as 0.01.

For `O=C(O)CCCCCCCCCCCOc1ccc(CCc2ccc(S(=O)(=O)Nc3ccc(C(=O)NCCOCCOCC(=O)NCCOCCOCC(=O)O)cn3)cc2)cc1` [Binder 25], in series [1], the “NRT [min]” value is listed as 17.48 min. In series [2], this compound had an autophosphorylation activity of 0.03. In series [3], this compound returned an Insulin-receptor binding affinity of 0.02.

For the compound `O=C(O)CCCCCCCCCCCCCCCOc1ccc(S(=O)(=O)Nc2ccc(C(=O)NCCOCCOCC(=O)NCCOCCOCC(=O)O)cn2)c(Cl)c1Cl` [Binder 36], in series [1], the “NRT [min]” value was found to be 13.89 min. This compound also came in with an autophosphorylation activity in series [2] of 0.23. In series [3], this compound showed an Insulin-receptor binding affinity of 0.17.

On to `O=C(O)CCCCCCCCCCCc1cc(Oc2ccc(S(=O)(=O)Nc3ncc(C(=O)NCCOCCOCC(=O)NCCOCCOCC(=O)O)cn3)cc2)ccc1F` [Binder 28], for which, in series [1], the “NRT [min]” value worked out at 15.39 min. Further, the autophosphorylation activity in series [2] was 0.11. This compound gave an Insulin-receptor binding affinity in series [3] of 0.12.

As to `O=C(O)CCCCCCCCCCCCCCCCCc1ccc(S(=O)(=O)Nc2ncc(C(=O)NCCOCCOCC(=O)NCCOCCOCC(=O)O)cn2)cc1` [Binder 4], in series [1], the “NRT [min]” value stood at 15.75 min. Further, the autophosphorylation activity in series [2] was 0.4. The Insulin-receptor binding affinity in series [3] is 0.57.

As for `O=C(O)CCCCCCCCCCCOc1ccc(CCc2ccc(S(=O)(=O)Nc3ncc(C(=O)NCCOCCOCC(=O)NCCOCCOCC(=O)O)cn3)cc2)cc1` [Binder 3], in series [1], the “NRT [min]” value was 17.51 min. The compound also gave an autophosphorylation activity in series [2] of 0.34. The same compound displayed an Insulin-receptor binding affinity in series [3] of 0.24.

As for `O=C(O)CCCCCCCCCCCCCCCc1cc(Oc2ccc(S(=O)(=O)Nc3ccc(C(=O)NCCOCCOCC(=O)NCCOCCOCC(=O)O)cn3)cc2)ccc1F` [Binder 23], in series [1], the “NRT [min]” value came out at 15.61 min. The “Percent remaining insulin analog” value in series [4] is given as 80%. This compound returned an autophosphorylation activity in series [2] of 0.37. The same compound had an Insulin-receptor binding affinity in series [3] of 0.56.

As for `O=C(O)CCCCCCCCCCCCCc1ccc(Oc2ccc(S(=O)(=O)Nc3ncc(C(=O)NCCOCCOCC(=O)NCCOCCOCC(=O)O)cn3)cc2)cc1` [Binder 11], the “NRT [min]” value in series [1] is recorded as 14.52 min. Moreover, the “Percent remaining insulin analog” value in series [4] was found to be 12%. Besides, in series [2], the autophosphorylation activity amounted to 0.06. In addition, the Insulin-receptor binding affinity in series [3] stood at 0.01.

Source of the values: patent US11098102B2, “Insulin conjugates” (SANOFI, priority 2018, dated 2021).
